# Measured values reported in patent US20220023269A1, “Methods Of Treating Diabetes In Severe Insulin-Resistant Diabetic Subjects” (Balticgruppen Bio AB, priority 2018, published 2022).
# Tests used:
# rat skeletal L6 myotubes = assay: Glucose uptake in L6 myotubes; type: cell-based; details: 2.5, 5, 10 μM; absence of insulin; siAMPKα1/α2
# Procedure: Rat L6 skeletal muscle cells grown in high-glucose (4.5 g/L) Dulbecco's Modified Eagle Medium (Gibco #31966), 10% fetal bovine serum (Gibco #10500-064) and 25 μg/ml gentamicin (Gibco 1 #5750) were induced to differentiate, by reducing the serum concentration to 2% for 14 days by which time the majority of myoblast had differentiated to myotubes. Myotubes were rinsed in serum-free low-glucose (1 g/L) DMEM (Gibco a #21885), treated with vehicle control, 2.5, 5 and 10 μM test material (serum-free low-glucose DMEM, 0.1% DMSO) for 2 hours, rinsed in serum-free DMEM w/o glucose (Gibco #11966) and thereafter incubated with the same for 20 minutes before addition of 1 μCi 2-Deoxy-D-glucose (2-DG) (Perkin Elmer #NET549A250UC) for 10 minutes. The cells were rinsed 3 times in serum-free DMEM w/o glucose and lysed in 1 ml RIPA buffer (150 mM Sodiumchloride, 1% NP40, 0.5% Sodiumdeoxycholate, 0.1% SDS, 50 mM Tris pH8.0). 300 μl were added to 4 ml liquid scintillation cocktail (Perkin Elmer #1200-437) before counted, 1 minute, in a Wallac 1414 beta counter. CPM was converted to arbitrary units by setting vehicle control as 1. […]
# [1] = test system: T2D patients on Metformin; assay: Phase IIa clinical trial (TELLUS), 28 days; type: in vivo, human; details: for T2*-grad / Δ-T2*: group-averaged curve fitting
# Procedure: An exploratory proof-of-concept randomised, parallel-group, double-blinded, placebo-controlled phase IIa 28-day study (TELLUS) of the first-in-class AMPK activator (the test material; 1,000 mg/day) was conducted in 65 T2D patients on Metformin for months, aiming at further exploring safety of test material and the effect of test material on FPG at a single-dose level.
# Main inclusion criteria: Male and female patients, 18-80 years of age, with uncomplicated T2D, on stable T2D treatment with Metformin monotherapy for 3 months. HbA1c of ≥6.5% and 9.0%, and not FPG at day 1, was selected as the main inclusion criterion.
# Main exclusion criteria: History of myocardial infarction (MI), unstable angina, stroke or transient ischemic attack (TIA). Congestive heart failure defined as New York Heart Association (NYHA) class III-IV. Any clinically significant abnormalities in physical examination, ECG or clinical chemistry results, as judged by the Investigator.
# A good-manufacturing practice (GMP) batch of 5 kg test material was manufactured by Anthem BioSciences Pvt.Ltd, Bangalore, Karnataka, India. The suspension is composed of test material 20 mg/ml in 2% methylcellulose in phosphate buffer. A 2% methylcellulose suspension that colour matched the active product was used as placebo. The test material and placebo suspensions were manufactured, packaged and labelled by Recipharm Pharmaceutical Development AB, Solna, Sweden.
# Sixty-five (65) patients were randomised (1:1) to treatment with either the material or placebo. A screening visit (Visit 1) was performed within 3 weeks before randomisation and the start of IMP administration. Patients were randomised on Day 1 (Visit 2) and allocated to 28 days' treatment with either test material or placebo (1:1). Study visits to the clinic were performed 7, 14, 21, 28, 29 and 40 days (Visits 3 to 8) following randomisation and start of treatment. The patients were confined to the research clinic from the evening before Day 1 and Day 28 (Day −1 and Day 27, respectively) to ensure fasting conditions before samples for analyses of FPG were collected. Magnetic Resonance Imaging (MRI) scans after screening but before day 1 and after end of treatment were performed at the University Hospital in Uppsala, Sweden, according to standardised methods. Antaros Medical in Uppsala performed the data analysis. A clinical read of the acquired scans was performed by a radiologist at Antaros Medical. If clinically significant findings were noted by the radiologist, the Investigator was notified of the finding. The Investigator was to evaluate and handle the finding as per standard medical/clinical judgment.
# Any findings were reported as either baseline events or adverse events, if they started, or worsened after administration of the first dose of IMP. The method used for assessing microvascular function in the calf muscle, (a proxy for oxygenation), include a dynamic MRI investigation of T2* determination before during and after reactive hyperemia (Reference 4). Sixty five (65) patients were randomised, 32 patients in the placebo group and 33 in the test material group, and 59 patients completed the study (28 and 31 in the two groups, respectively). HbA1c of 6.5% and 9.0%, and not FPG at day 1, was used as the inclusion criterion since MRI examinations had to be performed after screen but before day 1.
# DIO mice (B6CBAF1/J) = assay: Laser Doppler imaging of peripheral blood perfusion; type: in vivo; details: 40 mg/kg/day gavage, 8 w, vs vehicle
# Procedure: 9 weeks old F1 mice were fed HFD for 8 weeks and treated with either vehicle or test material (40 mg/kg, orally once a day). Veet hair removal cream was used to remove hair from the left hind limb one day prior to blood perfusion analysis. Mice were anaesthetised using isoflurane and placed on a heating pad. Blood perfusion was scanned using a PeriScan PIM II Images and LDPIwin software (version 2.6.1) was used to analyse the images.
# [2] = subjects with long TTP at baseline
smiles,measurement,setting,value
"O=C(Nc1nc(=O)n(Cc2ccc(Cl)cc2)s1)c1ccc(Cl)cc1 [test material, 4-chloro-N-[2-[(4-chlorophenyl)methyl]-3-oxo-1,2,4-thiadiazol-5-yl]benzamide]",2-Deoxy-D-glucose (2-DG) uptake,rat skeletal L6 myotubes,increased 2-Deoxy-D-glucose (2-DG) uptake in a dose- and AMPK-dependent manner
same,"mean absolute reduction in diastolic blood pressure, day 28 vs day 1","[1]; 1,000 mg/day",−3.8 mmHg
same,"mean absolute reduction in systolic blood pressure, day 28 vs day 1","[1]; 1,000 mg/day",−5.8 mmHg
same,tolerability,"[1]; 1,000 mg/day, 28 days",well tolerated
same,HOMA-IR at day 28 compared with day 1,"[1]; 1,000 mg/day, Wilcoxon test within group",statistically significant both absolute (P=0.0097) and relative (P=0.017) reduction
same,change in mean heart rate at day 28 compared with baseline,"[1]; 1,000 mg/day, not significant",−1.6 bpm
same,mean absolute reduction in FPG at day 28 compared with day 1,"[1]; 1,000 mg/day, post hoc, FPG >7 to <13.3 mmol/l at day 1",-0.60 mM
same,T2*-grad,[1]; MR1 (screening/baseline),0.528 min⁻¹
same,Δ-T2*,[1]; MR1 (screening/baseline),0.072
same,T2*-grad,[1]; MR2 (day 27-29),0.665 min⁻¹
same,Δ-T2*,[1]; MR2 (day 27-29),0.081
same,plasma t1/2,[1]; T2D patients,long
same,time to plasma steady-state concentration,[1]; T2D patients,≥ 14 days
same,T2*-gradient at day 28 compared with baseline,"[1]; individual curve fitting, Wilcoxon within group",significant relative increase
same,Δ−T2* (hyperemic perfusion) at day 28 compared with baseline,"[1]; individual curve fitting, vs placebo, 2-way ANOVA",statistically significant increase
same,"time-to-peak (TTP), MRI1 vs MRI2",[1]; [2],significant shortening of TTP
same,"Δ−T2*, MRI1 vs MRI2",[1]; [2],increase
same,microvascular blood flow in hind legs,DIO mice (B6CBAF1/J),significantly increased microvascular blood flow
